Tests used:
Assay in all cases: NCI 60 growth inhibition
Type in all cases: cell-based, human
CAKI-1 = details: CAKI-1, Renal Cancer
DU-145 = details: DU-145, Prostate Cancer
SN12C = details: Renal Cancer
MDA-MB-435 = details: MDA-MB-435, Melanoma
RPMI-8226 = details: RPMI-8226, Leukemia
SNB-19 = details: SNB-19, CNS Cancer
SW-620 = details: SW-620, Colon Cancer
BT-549 = details: BT-549, Breast Cancer
OVCAR-8 = details: OVCAR-8, Ovarian Cancer
HT29 = test system: HT29
ACHN = details: Renal Cancer
KM12 = details: KM12, Colon Cancer
U251 = details: U251, CNS Cancer
SF-268 = details: SF-268, CNS Cancer
PC-3 = details: PC-3, Prostate Cancer
OVCAR-4 = details: OVCAR-4, Ovarian Cancer
K-562 = details: K-562, Leukemia
EKVX = details: Non-Small Cell Lung Cancer
CCRF-CEM = details: Leukemia
SK-MEL-28 = details: SK-MEL-28, Melanoma, Table 3
HL-60(TB) = details: Leukemia
OVCAR-5 = details: OVCAR-5, Ovarian Cancer
MCF7 = details: MCF7, Breast Cancer
HCT-116 = details: HCT-116, Colon Cancer

C=C1C(=O)O[C@H]2[C@H]1CC/C(Cn1cc(-c3ccc(N)cc3)nn1)=C\CC[C@@]1(C)O[C@@H]21 [JVM 4-58]
GI50 (CAKI-1; Table 3): 1770 nM
GI50 (DU-145; Table 3): 3650 nM
GI50 (SN12C; Table 3): 3480 nM
GI50 (MDA-MB-435; Table 3): 3010 nM
GI50 (RPMI-8226; Table 3): 2750 nM
GI50 (SNB-19; Table 3): 12700 nM
GI50 (SW-620; Table 3): 2160 nM
GI50 (BT-549; Table 3): 3050 nM
GI50 (OVCAR-8; Table 3): 3040 nM
GI50 (HT29; HT29, Colon Cancer, Table 3): 2140 nM
GI50 (ACHN; Table 3): 2650 nM
GI50 (KM12; Table 3): 11400 nM
GI50 (U251; Table 3): 4160 nM
GI50 (SF-268; Table 3): 3700 nM
GI50 (PC-3; Table 3): 10100 nM
GI50 (OVCAR-4; Table 3): 4900 nM
GI50 (K-562; Table 3): 2990 nM
GI50 (EKVX; Table 3): 3890 nM
GI50 (CCRF-CEM; Table 3): 2000 nM
GI50 (SK-MEL-28): 2710 nM
GI50 (HL-60(TB); HL-60 (TB), Table 3): 2230 nM
GI50 (OVCAR-5; Table 3): 6430 nM
GI50 (MCF7; Table 3): 2410 nM
GI50 (HCT-116; Table 3): 1550 nM

C=C1C(=O)O[C@H]2[C@H]1CC/C(Cn1cc(-c3ccsc3)nn1)=C\CC[C@@]1(C)O[C@@H]21 [JVM 4-53]
GI50 (CAKI-1; Table 3): 1060 nM
GI50 (DU-145; Table 3): 1430 nM
GI50 (SN12C; Table 3): 2450 nM
GI50 (MDA-MB-435; Table 3): 1850 nM
GI50 (RPMI-8226; Table 3): 2450 nM
GI50 (SNB-19; Table 3): 9490 nM
GI50 (SW-620; Table 3): 1320 nM
GI50 (BT-549; Table 3): 1800 nM
GI50 (OVCAR-8; Table 3): 2960 nM
GI50 (HT29; HT29, Colon Cancer, Table 3): 1660 nM
GI50 (ACHN; Table 3): 1320 nM
GI50 (KM12; Table 3): 6450 nM
GI50 (U251; Table 3): 2500 nM
GI50 (SF-268; Table 3): 2530 nM
GI50 (PC-3; Table 3): 4210 nM
GI50 (OVCAR-4; Table 3): 2480 nM
GI50 (K-562; Table 3): 2510 nM
GI50 (EKVX; Table 3): 2330 nM
GI50 (CCRF-CEM; Table 3): 1630 nM
GI50 (SK-MEL-28): 1810 nM
GI50 (HL-60(TB); HL-60 (TB), Table 3): 1910 nM
GI50 (OVCAR-5; Table 3): 2290 nM
GI50 (MCF7; Table 3): 1680 nM
GI50 (HCT-116; Table 3): 1160 nM

C=C1C(=O)O[C@H]2[C@H]1CC/C(Cn1cc(-c3ccccc3C(F)(F)F)nn1)=C\CC[C@@]1(C)O[C@@H]21 [JVM 4-59]
GI50 (CAKI-1; Table 3): 1310 nM
GI50 (DU-145; Table 3): 1420 nM
GI50 (SN12C; Table 3): 2470 nM
GI50 (MDA-MB-435; Table 3): 2180 nM
GI50 (RPMI-8226; Table 3): 1870 nM
GI50 (SNB-19; Table 3): 10800 nM
GI50 (SW-620; Table 3): 1240 nM
GI50 (BT-549; Table 3): 2400 nM
GI50 (OVCAR-8; Table 3): 2230 nM
GI50 (HT29; HT29, Colon Cancer, Table 3): 1790 nM
GI50 (ACHN; Table 3): 1450 nM
GI50 (KM12; Table 3): 5880 nM
GI50 (U251; Table 3): 1830 nM
GI50 (SF-268; Table 3): 2090 nM
GI50 (PC-3; Table 3): 4320 nM
GI50 (OVCAR-4; Table 3): 2770 nM
GI50 (K-562; Table 3): 2400 nM
GI50 (EKVX; Table 3): 2320 nM
GI50 (CCRF-CEM; Table 3): 760 nM
GI50 (SK-MEL-28): 1750 nM
GI50 (HL-60(TB); HL-60 (TB), Table 3): 2580 nM
GI50 (OVCAR-5; Table 3): 2460 nM
GI50 (MCF7; Table 3): 1330 nM
GI50 (HCT-116; Table 3): 1260 nM

C=C1C(=O)O[C@H]2[C@H]1CC/C(Cn1cc(CCC)nn1)=C\CC[C@@]1(C)O[C@@H]21 [JVM 4-16, (1aR,7aS,10aS,10bS,E)-1a-Methyl-8-methylene-5((4-propyl-1H-1,2,3-triazol-1-yl)methyl)-2,3,6,7,7a,8,10a,10b-octahydrooxireno[2′,3′:9,10]cyclodeca[1,2-b]furan-9(1aH)-one]
GI50 (CAKI-1; Homo sapiens, Table 2): 3910 nM
GI50 (DU-145; Homo sapiens, Table 2): 4320 nM
GI50 (SN12C; Homo sapiens, Table 2): 12100 nM
GI50 (MDA-MB-435; Homo sapiens, Table 2): 10400 nM
GI50 (RPMI-8226; Homo sapiens, Table 2): 5520 nM
GI50 (SNB-19; Homo sapiens, Table 2): 18800 nM
GI50 (SW-620; Homo sapiens, Table 2): 4230 nM
GI50 (BT-549; Homo sapiens, Table 2): 14200 nM
GI50 (OVCAR-8; Homo sapiens, Table 2): 13500 nM
GI50 (HT29; Homo sapiens, HT-29, Colon Cancer, Table 2): 5500 nM
GI50 (ACHN; Homo sapiens, Table 2): 3810 nM
GI50 (KM12; Homo sapiens, Table 2): 17600 nM
GI50 (U251; Homo sapiens, U-251, Table 2): 14100 nM
GI50 (SF-268; Homo sapiens, Table 2): 13700 nM
GI50 (PC-3; Homo sapiens, Table 2): 14900 nM
GI50 (OVCAR-4; Homo sapiens, Table 2): 9460 nM
GI50 (K-562; Homo sapiens, K562, Table 2): 3960 nM
GI50 (EKVX; Homo sapiens, Table 2): 11500 nM
GI50 (CCRF-CEM; Homo sapiens, Table 2): 3000 nM
GI50 (HL-60(TB); Homo sapiens, HL-60(TB), Table 2): 3530 nM
GI50 (OVCAR-5; Homo sapiens, Table 2): 14100 nM
GI50 (MCF7; Homo sapiens, Table 2): 3350 nM
GI50 (HCT-116; Homo sapiens, Table 2): 3980 nM
